Data as given in PubChem BioAssay AID220 (DTP/NCI, 2004).
Several values for one entry are separate records, joined by “and”; a condition that tells them apart may be missing. Equal entries are not always repeated. Records with an inconclusive call do not appear.

Test system: CD8F1 mice, subcutaneous mammary adenocarcinoma, T/C%
Experiment: NCI In Vivo Anticancer Drug Screen. Data for tumor model Mammary Adenocarcinoma CD8F1 (subcutaneous) in CD8F1
Details: higher = larger tumour
In short: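 Mice carrying transplanted tumors received test compound, and survival or tumor size was recorded. Each value is the treated-group measurement divided by the corresponding measurement in vehicle-dosed controls.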

[1] = endpoint: median tumor weight (est.), dose: 25.0 mg/kg/injection, schedule: Q07DX005 (ip), vehicle: saline with Tween-80
[2] = endpoint: median tumor weight change, dose: 125.0 mg/kg/injection, schedule: Q01DX001 (ip), vehicle: saline
[3] = endpoint: median tumor weight change, dose: 250.0 mg/kg/injection, schedule: Q01DX001 (ip), vehicle: saline
[4] = endpoint: median tumor weight change, dose: 500.0 mg/kg/injection, schedule: Q01DX001 (ip), vehicle: saline
[5] = endpoint: median tumor weight change, dose: 1000.0 mg/kg/injection, schedule: Q01DX001 (ip), vehicle: saline
[6] = endpoint: median tumor weight (est.), dose: 12.5 mg/kg/injection, schedule: Q07DX005 (ip), vehicle: Klucel (hydroxypropylcellulose) (HPC)
[7] = endpoint: median tumor weight (est.), dose: 25.0 mg/kg/injection, schedule: Q07DX005 (ip), vehicle: Klucel (hydroxypropylcellulose) (HPC)
[8] = endpoint: median tumor weight (est.), dose: 50.0 mg/kg/injection, schedule: Q07DX005 (ip), vehicle: Klucel (hydroxypropylcellulose) (HPC)
[9] = endpoint: median tumor weight (est.), dose: 100.0 mg/kg/injection, schedule: Q07DX005 (ip), vehicle: Klucel (hydroxypropylcellulose) (HPC)
[10] = endpoint: median tumor weight (est.), dose: 200.0 mg/kg/injection, schedule: Q07DX005 (ip), vehicle: Klucel (hydroxypropylcellulose) (HPC)
[11] = endpoint: median tumor weight change, dose: 62.5 mg/kg/injection, schedule: Q01DX001 (ip), vehicle: saline with Tween-80
[12] = endpoint: median tumor weight change, dose: 125.0 mg/kg/injection, schedule: Q01DX001 (ip), vehicle: saline with Tween-80
[13] = endpoint: median tumor weight (est.), dose: 6.25 mg/kg/injection, schedule: Q07DX005 (ip), vehicle: Klucel (hydroxypropylcellulose) (HPC)

## COc1cccc2c1C(=O)c1c(O)c3c(c(O)c1C2=O)C[C@@](O)(/C(C)=N/NC(=O)c1ccccc1)C[C@@H]3OC1CC(N)C(O)C(C)O1 (some centres not stated)
endpoint: median tumor weight (est.), dose: 3.12 mg/kg/injection, schedule: Q07DX005 (ip), vehicle: water
  T/C: 263 % of control
endpoint: median tumor weight (est.), dose: 6.25 mg/kg/injection, schedule: Q07DX005 (ip), vehicle: water
  T/C: 82 % of control

## O=[Te]=O
endpoint: median tumor weight change, dose: 6.25 mg/kg/injection, schedule: Q01DX001 (ip), vehicle: suspension in saline
  T/C: 73 % of control
endpoint: median tumor weight change, dose: 12.5 mg/kg/injection, schedule: Q01DX001 (ip), vehicle: suspension in saline
  T/C: 83 % of control
endpoint: median tumor weight change, dose: 25.0 mg/kg/injection, schedule: Q01DX001 (ip), vehicle: suspension in saline
  T/C: 61 % of control
endpoint: median tumor weight change, dose: 50.0 mg/kg/injection, schedule: Q01DX001 (ip), vehicle: suspension in saline
  T/C: 94 % of control
endpoint: median tumor weight change, dose: 100.0 mg/kg/injection, schedule: Q01DX001 (ip), vehicle: suspension in saline
  T/C: 106 % of control

## O=S1(=O)C=C(c2ccccc2)C(c2ccccc2)=C1
endpoint: median tumor weight (est.), dose: 6.25 mg/kg/injection, schedule: Q07DX005 (ip), vehicle: saline with Tween-80
  T/C: 80 % of control
[1]
  T/C: 72 % of control
endpoint: median tumor weight (est.), dose: 50.0 mg/kg/injection, schedule: Q07DX005 (ip), vehicle: saline with Tween-80
  T/C: 108 % of control

## CC(=O)OCC1OC(n2ncc(=O)[nH]c2=O)C(OC(C)=O)C1OC(C)=O (configuration not stated)
[2]
  T/C: 165 % of control
[3]
  T/C: 111 % of control
[4]
  T/C: 162 % of control
[5]
  T/C: 117 % of control

## Cc1c2cc[n+](C)cc2c(C)c2c1[nH]c1ccc(O)cc12
endpoint: median tumor weight change, dose: 0.62 mg/kg/injection, schedule: Q01DX001 (ip), vehicle: saline
  T/C: 101 % of control
endpoint: median tumor weight change, dose: 1.25 mg/kg/injection, schedule: Q01DX001 (ip), vehicle: saline
  T/C: 67 % of control
endpoint: median tumor weight change, dose: 2.5 mg/kg/injection, schedule: Q01DX001 (ip), vehicle: saline
  T/C: 60 % of control

## COCCCNC1=C(C#N)C(=O)NC(c2cccc([N+](=O)[O-])c2)S1 (configuration not stated)
endpoint: median tumor weight change, dose: 1000.0 mg/kg/injection, schedule: Q01DX001 (ip), vehicle: saline with Tween-80
  T/C: 95 % of control and 110 % of control
endpoint: median tumor weight change, dose: 2000.0 mg/kg/injection, schedule: Q01DX001 (ip), vehicle: saline with Tween-80
  T/C: 79 % of control

## OC1CCCC2CCC[N-]C12.OC1CCCC2CCC[N-]C12.[Mn+2] (configuration not stated)
[6]
  T/C: 83 % of control
[7]
  T/C: 94 % of control
[8]
  T/C: 81 % of control
[9]
  T/C: 67 % of control
[10]
  T/C: 43 % of control

## Cn1c2ccccc2c2ccc3c(c21)C(=O)C=CC3=O
[11]
  T/C: 38 % of control

## CCN(CC)Cc1cc2[nH]c3c4ccc(Cl)cc4ncc3c2cc1OC
endpoint: median tumor weight change, dose: 31.0 mg/kg/injection, schedule: Q01DX001 (ip), vehicle: saline with Tween-80
  T/C: 47 % of control
endpoint: median tumor weight change, dose: 62.0 mg/kg/injection, schedule: Q01DX001 (ip), vehicle: saline with Tween-80
  T/C: 109 % of control
[12]
  T/C: 118 % of control

## CCC[CH2][Hg][Cl]
endpoint: median tumor weight (est.), dose: 2.5 mg/kg/injection, schedule: Q07DX005 (ip), vehicle: Klucel (hydroxypropylcellulose) (HPC)
  T/C: 197 % of control
endpoint: median tumor weight (est.), dose: 5.0 mg/kg/injection, schedule: Q07DX005 (ip), vehicle: Klucel (hydroxypropylcellulose) (HPC)
  T/C: 112 % of control
endpoint: median tumor weight (est.), dose: 20.0 mg/kg/injection, schedule: Q07DX005 (ip), vehicle: Klucel (hydroxypropylcellulose) (HPC)
  T/C: 110 % of control

## O=S(=O)(c1ccccc1)N1CN2CCN(C2)C1
[1]
  T/C: 55 % of control and 72 % of control
endpoint: median tumor weight (est.), dose: 200.0 mg/kg/injection, schedule: Q07DX005 (ip), vehicle: saline with Tween-80
  T/C: 66 % of control and 79 % of control

## Nc1ncn(C2OC(CO)C(O)C2O)c(=O)n1 (configuration not stated)
endpoint: mean tumor weight (est.), dose: 2.0 mg/kg/injection, schedule: Q07DX003 (ip), vehicle: other
  T/C: 58 % of control
endpoint: mean tumor weight (est.), dose: 8.0 mg/kg/injection, schedule: Q07DX003 (ip), vehicle: other
  T/C: 32 % of control
endpoint: median tumor weight (est.), dose: 1.0 mg/kg/injection, schedule: Q07DX005 (ip), vehicle: saline
  T/C: 63 % of control
endpoint: median tumor weight (est.), dose: 2.0 mg/kg/injection, schedule: Q07DX005 (ip), vehicle: saline
  T/C: 81 % of control
endpoint: median tumor weight (est.), dose: 4.0 mg/kg/injection, schedule: Q07DX005 (ip), vehicle: saline
  T/C: 22 % of control
endpoint: median tumor weight (est.), dose: 8.0 mg/kg/injection, schedule: Q07DX005 (ip), vehicle: saline
  T/C: 20 % of control
endpoint: median tumor weight (est.), dose: 8.0 mg/kg/injection, schedule: Q07DX005 (ip), vehicle: suspension in saline
  T/C: 22 % of control
endpoint: median tumor weight (est.), dose: 16.0 mg/kg/injection, schedule: Q07DX005 (ip), vehicle: saline
  T/C: 3 % of control
endpoint: median tumor weight (est.), dose: 16.0 mg/kg/injection, schedule: Q07DX005 (ip), vehicle: suspension in saline
  T/C: 2 % of control
endpoint: median tumor weight change, dose: 3.75 mg/kg/injection, schedule: Q01DX001 (ip), vehicle: saline
  T/C: 89 % of control
endpoint: median tumor weight change, dose: 7.5 mg/kg/injection, schedule: Q01DX001 (ip), vehicle: saline
  T/C: 45 % of control
endpoint: median tumor weight change, dose: 15.0 mg/kg/injection, schedule: Q01DX001 (ip), vehicle: saline
  T/C: 38 % of control
endpoint: median tumor weight change, dose: 30.0 mg/kg/injection, schedule: Q01DX001 (ip), vehicle: saline
  T/C: 36 % of control
endpoint: median tumor weight change, dose: 62.5 mg/kg/injection, schedule: Q01DX001 (ip), vehicle: saline
  T/C: 123 % of control
[2]
  T/C: 103 % of control
endpoint: median tumor weight change, dose: 135.0 mg/kg/injection, schedule: Q01DX001 (ip), vehicle: saline
  T/C: 44 % of control
[3]
  T/C: 86 % of control
[4]
  T/C: 106 % of control
endpoint: median tumor weight change, dose: 600.0 mg/kg/injection, schedule: Q01DX001 (ip), vehicle: suspension in saline
  T/C: 17 % of control
[5]
  T/C: 103 % of control
endpoint: median tumor weight change, dose: 1350.0 mg/kg/injection, schedule: Q01DX001 (ip), vehicle: suspension in saline
  T/C: -11 % of control
endpoint: median tumor weight change, dose: 1800.0 mg/kg/injection, schedule: Q01DX001 (ip), vehicle: suspension in saline
  T/C: 60 % of control
endpoint: median tumor weight change, dose: 2025.0 mg/kg/injection, schedule: Q01DX001 (ip), vehicle: suspension in saline
  T/C: 16 % of control
endpoint: median tumor weight change, dose: 3600.0 mg/kg/injection, schedule: Q01DX001 (ip), vehicle: suspension in saline
  T/C: 43 % of control

## FC(F)(F)c1nc2nc(Cl)c(Cl)nc2[nH]1
[11]
  T/C: 77 % of control
[12]
  T/C: 114 % of control
endpoint: median tumor weight change, dose: 250.0 mg/kg/injection, schedule: Q01DX001 (ip), vehicle: saline with Tween-80
  T/C: 74 % of control

## O=[N+]([O-])/C=C\c1ccc2c(c1)OCO2
[13]
  T/C: 102 % of control
[6]
  T/C: 59 % of control
[7]
  T/C: 86 % of control
[8]
  T/C: 60 % of control
[9]
  T/C: 55 % of control
[10]
  T/C: 83 % of control

## C(CSC1=NCCN1)CSC1=NCCN1
endpoint: median tumor weight (est.), dose: 12.5 mg/kg/injection, schedule: Q07DX005 (ip), vehicle: saline
  T/C: 98 % of control
endpoint: median tumor weight (est.), dose: 25.0 mg/kg/injection, schedule: Q07DX005 (ip), vehicle: saline
  T/C: 103 % of control
endpoint: median tumor weight (est.), dose: 50.0 mg/kg/injection, schedule: Q07DX005 (ip), vehicle: saline
  T/C: 76 % of control
endpoint: median tumor weight (est.), dose: 100.0 mg/kg/injection, schedule: Q07DX005 (ip), vehicle: saline
  T/C: 102 % of control
endpoint: median tumor weight (est.), dose: 200.0 mg/kg/injection, schedule: Q07DX005 (ip), vehicle: saline
  T/C: 69 % of control

## COc1cc2cc(c1Cl)N(C)C(=O)CC(OC(=O)C(C)N(C)C(=O)C(C)C)C1(C)OC1C(C)C1CC(O)(NC(=O)O1)C(OC)/C=C/C=C(C)C2OC (configuration not stated)
endpoint: median tumor weight change, dose: 16.0 micrograms/kg/injection, schedule: Q01DX001 (ip), vehicle: Klucel (hydroxypropylcellulose) (HPC)
  T/C: 73 % of control
endpoint: median tumor weight change, dose: 32.0 micrograms/kg/injection, schedule: Q01DX001 (ip), vehicle: Klucel (hydroxypropylcellulose) (HPC)
  T/C: 124 % of control
endpoint: median tumor weight change, dose: 64.0 micrograms/kg/injection, schedule: Q01DX001 (ip), vehicle: Klucel (hydroxypropylcellulose) (HPC)
  T/C: 82 % of control
endpoint: median tumor weight change, dose: 128.0 micrograms/kg/injection, schedule: Q01DX001 (ip), vehicle: Klucel (hydroxypropylcellulose) (HPC)
  T/C: 80 % of control
endpoint: median tumor weight change, dose: 256.0 micrograms/kg/injection, schedule: Q01DX001 (ip), vehicle: Klucel (hydroxypropylcellulose) (HPC)
  T/C: 64 % of control

## NC(C(=O)O)c1ccc(CBr)cc1 (configuration not stated)
[12]
  T/C: 106 % of control

## CS(=O)(=O)OCCN(CCOS(C)(=O)=O)c1ccc(C=Nc2ccc(-c3csc(COc4ccccc4)n3)cc2)cc1
[13]
  T/C: 88 % of control
[6]
  T/C: 97 % of control and 103 % of control
[7]
  T/C: 75 % of control and 79 % of control
[8]
  T/C: 83 % of control
[9]
  T/C: 27 % of control and 44 % of control
